Measured values published in US12285470B2, “Trim proteins and galectins cooperate and codirect autophagy and are useful in the treatment of autophagy related diseases” (UNM RAINFOREST INNOVATIONS, priority 2016, dated 2025).
Where a SMILES comes first, the peptide text is derived from it. The star is where a group is joined. βNA = c1ccc2cc(N*)ccc2c1

Experiments:
Mtb Erdman = test system: Mtb Erdman; parameters: species or system C57BL/6J mice; details: mouse, in vivo
HeLa cells [1] = experiment: Cell death by 7AAD nuclear staining, flow cytometry; type: cell-based
Method: (§1) High content microscopy with automated image acquisition and quantification was carried out using a Cellomics HCS scanner and iDEV software (Thermo) in 96-well plates (Mandell et al., 2014). Immunofluorescence confocal microscopy was performed using an LSM510 confocal microscope and Zeiss software package. For quantification of puncta or total cell fluorescence, image J was used as described previously (Chauhan et al., 2015). For quantifying cell death, HeLa and derivative cells treated with 15 μM siramesine for 12 h were incubated with 7AAD (BD Pharmingen™; cat #559925) for 30 min and fluorescence of 7AAD bound to nuclear DNA measured in a flow cytometer.

HeLa cells [2] = experiment: Confocal microscopy of TRIM16 puncta in HeLa cells; type: cell-based
Method: as §1

HeLa cells [3] = details: Petersen et al., 2013; cited from earlier work
THP-1 macrophages [4] = experiment: Galectin puncta formation in THP-1 macrophages; type: cell-based; details: 250 μM, 2h
THP-1 macrophages [5] = experiment: Lysosomal damage readouts (cathepsin B activity, LysoTracker Red) in THP-1 macrophages; type: cell-based
AMPK = AMPK activation response in THP-1 macrophages; type: cell-based; details: cells KD for Gal9
[6] = Blood levels of rapamycin by mass spectrometry in mice on eRAPA chow; details: 42 ppm eRAPA dose in chow; n=8 animals, mean±SD (±35 ng/ml)
[7] = test system: primary murine bone marrow-derived macrophages (BMMs); experiment: Oxygen consumption rate (Seahorse) in bone marrow-derived macrophages; type: cell-based
[8] = test system: HEK293 cells with YFP-Gal fusion; experiment: YFP-Galectin puncta formation by high content microscopy; type: cell-based; details: 100 μM, 1h
Text: Data, means±SD; n=1000 cells per condition; n>3; ANOVA, Tukey's t test vs. control, *p<0.05.**p<0.01.
a) Screen set up. […] Given that the endomembrane damage protection is a highly conserved process, we will use stable (Flp-In) YFP-Gal8 and YFP-Gal9 293A cells. […] In THP-1 cells, we will use endogenous Gal8 and Gal9 responses to lysosomal damage control. […] Quantification of target 1 (Gal8) and target II (Gal9) intracellular objects (Gal8 puncta) will be done by automated HC microscopy on our Cellomics Array Scanner system and processed, as we have recently published^99. We will use in primary tests parameters of 20 fields per well and >500 valid primary objects per well, corresponding to parameters that follow Z values of >0.5^155 in positive controls (100 μM GPN; 2 mM LLOMe) vs. negative controls (DMSO). For secondary tests of positive hits, 49 field/plate will be examined.

HeLa cells [9] = experiment: High content microscopy of LC3 and ubiquitin puncta after lysosomal damage; type: cell-based
Method: as §1

TFEB = experiment: High content analysis of TFEB nuclear translocation; type: cell-based; details: HeLa cells, lysosomal damage
Method: as §1

mTOR = experiment: S6K1 phosphorylation (mTOR target) immunoblot in HeLa cells; type: cell-based; details: 1 mM, 2h
Method: (§2) Immunoblots and co-IPs assays for endogenous or exogenously expressed proteins were carried out as described previously (Chauhan et al., 2015). For immunoprecipitation experiments with exogenously expressed proteins, 293T cells were transfected with 5 μg of expression constructs by calcium phosphate for 24 h and lysed on ice using NP-40 buffer (Invitrogen) containing protease inhibitor cocktail (Roche, cat #11697498001) and […] (Sigma, cat #93482). Lysates were mixed with antibody (2-3 μg) incubated at 4° C. for 2 h followed by incubation with protein G Dynabeads (Life technologies) for 2 h at 4° C. Beads were washed four times with PBS and then boiled with SDS-PAGE buffer for analysis of interacting protein by Immunoblotting. Input lanes contained 10% of material unless otherwise indicated.

DEPTOR = DEPTOR levels in extracts of HeLa cells; type: cell-based; details: 1 mM, 2h
Method: as §2

THP-1 cells = experiment: Confocal microscopy of TRIM16 puncta in THP-1 cells; type: cell-based; details: 0.5 mM
Method: as §1

For Nc1c(Br)cc(Br)cc1CN[C@H]1CC[C@H](O)CC1 [ambroxol], the “effect on Mtb lung CFU in combination with rifampicin” value (Mtb Erdman) was “synergism”.
For Fc1ccc(-n2cc(CCCCN3CCC4(CC3)OCc3ccccc34)c3ccccc32)cc1 [siramesine], the “sensitivity to cell death in TRIM16KO HeLa cells vs HeLa” value (HeLa cells [1]; 15 μM, 12 h, 7AAD) is listed as “increased sensitivity to cell death”, the “TRIM16 puncta formation in HeLa cells” value (HeLa cells [2]) is listed as “formation of TRIM16 puncta that colocalized with LC3B” and the “cell death in HeLa cells (literature)” value (HeLa cells [3]) is listed as “can promote cell death”.
In the case of CN(C)C(=N)N=C(N)N [metformin], the Galectin puncta formation (THP-1 macrophages [4]) is reported as “causes Gal3, Gal8, and Gal9 puncta formation”, the “LysoTracker Red stain” value (THP-1 macrophages [5]; THP-1 macrophages) is reported as “Reduction” and the “lysosomal cathepsin B activity” value (THP-1 macrophages [5]; THP-1 macrophages) is reported as “loss of activity”. For the same compound, the lysosomal damage (THP-1 macrophages [5]; preliminary studies) was “causes lysosomal damage” and the AMPK activation (AMPK) was “Gal9-dependent AMPK activation”.
With CO[C@H]1C[C@@H]2CC[C@@H](C)[C@@](O)(O2)C(=O)C(=O)N2CCCC[C@H]2C(=O)O[C@H]([C@H](C)C[C@@H]2CC[C@@H](O)[C@H](OC)C2)CC(=O)[C@H](C)/C=C(\C)[C@@H](O)[C@@H](OC)C(=O)[C@H](C)C[C@H](C)/C=C/C=C/C=C/1C [rapamycin] the “blood levels of rapamycin” value [6] was 205 ng/mL.
In the case of NCC(=O)N[C@@H](Cc1ccccc1)C(=O)Nc1ccc2ccccc2c1 [GPN, Gly-Phe-naphthylamide] (H-Gly-Phe-βNA), the “oxygen consumption rate (OCR)” value [7] is reported as “alters” and the “cytoplasmic Galectin puncta formation response” value [8] is reported as “Gal3, Gal8 and Gal9 give the most robust response”.
With COC(=O)[C@H](CC(C)C)NC(=O)[C@@H](N)CC(C)C [LLOMe, Leu-Leu-O-Me] the “LC3 response (endogenous LC3B puncta)” value (HeLa cells [9]) was “consistent LC3 dose response”, the “abundance of ubiquitin puncta” value (HeLa cells [9]; high content microscopy) was “Dose-dependent increase” and the “TFEB translocation to the nucleus” value (TFEB) was “translocated to the nucleus”. For the same compound, the “mTOR activity (S6K1 phosphorylation)” value (mTOR) was “inhibited”, the “cellular DEPTOR level” value (DEPTOR) was “increased” and the lysosomal cell death (HeLa cells [1]; HeLa cells) was “cannot cause significant lysosomal cell death”. The “TRIM16 puncta formation in leukocytes” value (THP-1 cells) was “morphologically prominent”.
